“Also recorded” adds a separate entry of the source. Where two headings read alike, the source gives them in different places. Marks after values point to notes of the source that are not given here.
Legend:
[1] = test system: Male Swiss Webster mice; assay: mouse tetrad assay: overall cannabimimetic action; settings: ip, result in words
[2] = test system: Male Swiss Webster mice; assay: mouse tetrad assay: locomotor activity; settings: for hypolocomotive activity: ip, across doses, result in words; for locomotor activity: total photobeam interruptions, last 10 min of 30 min, mean ± SEM
[3] = test system: Male Swiss Webster mice; assay: mouse tetrad assay: tail-flick latency; settings: cutoff 15 s, mean ± SEM
[4] = test system: Male Swiss Webster mice; assay: mouse tetrad assay: hot-plate latency; settings: cutoff 45 s, mean ± SEM
[5] = test system: Male Swiss Webster mice; assay: mouse tetrad assay: catalepsy; settings: latency to drop, cutoff 180 s, mean ± SEM
[6] = test system: Male Swiss Webster mice; assay: mouse tetrad assay: rectal temperature; settings: difference between basal and postinjection temperatures, mean ± SEM
[7] = target: full-length human cannabinoid-2 receptor (Homo sapiens, UniProt P34972); assay: CB2 receptor radioligand binding assay
[8] = target: full-length human cannabinoid-1 receptor (Homo sapiens, UniProt P21554); settings: radioligand binding
[9] = target: CB1 receptor (Homo sapiens, UniProt P21554); assay: functional assays at CB1 receptor; format: biochemical; settings: result in words
[10] = target: CB2 receptor (Homo sapiens, UniProt P34972); assay: functional assays at CB2 receptor; format: biochemical; settings: result in words
CB2 receptor, sequence (P34972 whole entry): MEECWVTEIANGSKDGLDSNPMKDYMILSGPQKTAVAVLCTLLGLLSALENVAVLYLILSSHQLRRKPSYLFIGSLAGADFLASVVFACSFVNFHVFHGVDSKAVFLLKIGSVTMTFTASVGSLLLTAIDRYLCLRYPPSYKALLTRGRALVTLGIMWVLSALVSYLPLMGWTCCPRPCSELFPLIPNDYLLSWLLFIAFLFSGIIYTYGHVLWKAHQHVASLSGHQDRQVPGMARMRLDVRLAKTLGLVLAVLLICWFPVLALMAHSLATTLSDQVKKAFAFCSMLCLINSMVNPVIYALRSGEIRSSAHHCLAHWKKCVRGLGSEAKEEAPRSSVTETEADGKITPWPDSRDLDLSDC

CB1 receptor, sequence (P21554 whole entry): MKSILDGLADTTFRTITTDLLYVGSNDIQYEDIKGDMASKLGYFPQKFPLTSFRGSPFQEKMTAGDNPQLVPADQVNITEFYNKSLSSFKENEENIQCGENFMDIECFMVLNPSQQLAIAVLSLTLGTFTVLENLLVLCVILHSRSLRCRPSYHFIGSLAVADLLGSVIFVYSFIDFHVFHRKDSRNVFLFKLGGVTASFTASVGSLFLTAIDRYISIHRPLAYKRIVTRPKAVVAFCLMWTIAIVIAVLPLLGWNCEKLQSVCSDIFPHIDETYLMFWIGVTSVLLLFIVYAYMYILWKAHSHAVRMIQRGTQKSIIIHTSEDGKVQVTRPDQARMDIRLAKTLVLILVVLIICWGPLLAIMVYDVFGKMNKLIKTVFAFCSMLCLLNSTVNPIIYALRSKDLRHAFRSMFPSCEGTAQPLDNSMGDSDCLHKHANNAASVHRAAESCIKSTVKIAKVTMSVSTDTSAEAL
full-length human cannabinoid-1 receptor, sequence (P21554 whole entry): as above
full-length human cannabinoid-2 receptor, sequence (P34972 whole entry): as the sequence (P34972 whole entry) above

CCCCCc1cc(O)c2c(c1)OC(C)(C)[C@@H]1C[C@@H](O)C(C)=C[C@@H]21 [Compound 2, 8β-hydroxy-Δ^9-tetrahydrocannabinol]
cannabimimetic-like action in the mouse tetrad assay ([1]; at the doses tested): lacked any cannabimimietic activity | cannabimimetic-like action in the mouse tetrad assay ([1]; doses up to 20 mg/kg): lacked typical cannabimimetic-like action | hypolocomotive activity [2]: dose-dependent hypolocomotive effect only | hypolocomotive activity ([2]; listed as compound 2): significant dose-dependent hypolocomotive activity

CCCCCc1cc(O)c2c(c1)OC(C)(C)[C@@H]1CC=C(C)[C@@H](O)[C@@H]21 [Compound 4, 10β-hydroxy-Δ^8-tetrahydrocannabinol]
effects in the mouse tetrad assay ([1]; 40 mg/kg (highest tested dose), 40 mg/kg): hypothermic and antinociceptive activity | cannabimimetic-like action in the mouse tetrad assay ([1]; at the doses tested): partial cannabimimetic action

(−)-trans-Δ^9-tetrahydrocannabinol [Δ^9-THC]
tail-flick latency (% MPE) ([3]; 10 mg/kg ip): 6.52 ± 2.00 % MPE | tail-flick latency (% MPE) ([3]; 20 mg/kg ip): 42.21 ± 17.04 ^b % MPE | tail-flick latency (% MPE) ([3]; 40 mg/kg ip): 51.96 ± 13.22 ^c % MPE | hot-plate latency (% MPE) ([4]; 10 mg/kg ip): 29.04 ± 5.37 ^c % MPE | hot-plate latency (% MPE) ([4]; 20 mg/kg ip): 46.85 ± 9.08 ^c % MPE | hot-plate latency (% MPE) ([4]; 40 mg/kg ip): 38.18 ± 4.05 ^c % MPE | locomotor activity ([2]; 10 mg/kg ip): 190.9 ± 33.8 ^c | locomotor activity ([2]; 20 mg/kg ip): 276.2 ± 52.6 ^c | locomotor activity ([2]; 40 mg/kg ip): 194.0 ± 49.2 ^c | catalepsy latency ([5]; 10 mg/kg ip): 14.4 ± 4.16 s | catalepsy latency (s) ([5]; 20 mg/kg ip): 47.9 ± 20.04 ^b s | catalepsy latency (s) ([5]; 40 mg/kg ip): 37.7 ± 14.64 ^a s | decrease in rectal temperature (°C) ([6]; 10 mg/kg ip): 2.05 ± 0.25 °C | decrease in rectal temperature (°C) ([6]; 20 mg/kg ip): 4.25 ± 0.78 ^c °C | decrease in rectal temperature (°C) ([6]; 40 mg/kg ip): 4.80 ± 0.28 ^c °C

CCCCCc1cc(O)c2c(c1)OC(C)(C)[C@@H]1C[C@H](O)C(C)=C[C@@H]21 [Compound 1, 8α-hydroxy-Δ^9-tetrahydrocannabinol]
cannabimimetic activity in the mouse tetrad assay ([1]; dose of 20 mg/kg): did not exhibit typical cannabimimetic activity

CCCCCc1cc(O)c2c(c1)OC(C)(C)[C@@H]1CC=C(C)[C@H](O)[C@@H]21 [Compound 3, 10α-hydroxy-Δ^8-tetrahydrocannabinol]
binding affinity (nM) CB2 [7]: nearly as tightly as THC | cannabimimetic-like action in the mouse tetrad assay ([1]; at the doses tested): most potent cannabimimetic-like actions; also recorded: typical cannabimimetic actions | binding affinity (nM) CB1 [8]: nearly as tightly as THC | binding affinity (nM) CB1 ([8]; listed as compound 3): highest affinity | functional activity at CB1 receptor [9]: partial agonist | functional activity at CB1 receptor ([9]; listed as compound 3): partial CB1 agonist | functional activity at CB2 receptor [10]: partial agonist

CCCCCc1cc(O)c2c(c1)OC(C)(C)[C@@H]1CC=C(C)C[C@@H]21 [Δ^8-THC, Δ^8-tetrahydrocannabinol]
decrease in rectal temperature (°C) ([6]; 5 mg/kg ip): 0.12 ± 0.09 °C | decrease in rectal temperature (°C) ([6]; 20 mg/kg ip): 1.96 ± 0.37 ^a °C

CCCCCc1cc(O)c2c(c1)OC(C)(C)[C@@H]1CC[C@@]3(C)O[C@H]3[C@@H]21 [Compound 6, 9β,10β-epoxyhexahydrocannabinol]
cannabimimetic-like action in the mouse tetrad assay ([1]; at the doses tested): most potent cannabimimetic-like actions

Reference: paper PMC4880513 (Journal of natural products, 2015)
